# How the values were obtained:
# Assay in all cases: Cell proliferation (Cell Titer-Blue Assay)
# Assay type in all cases: cell-based, human
# PBMC = settings: for cell proliferation of PBMC: 120 hours incubation; for EC50: Homo sapiens, 24 hr
# Experimental: Human peripheral blood mononuclear cells (PBMCs) were fractionated using the Ficoll Plaque fractionation method from whole blood obtained from the Australian Red Cross Blood Bank (ARCB) under ethic approval (#304/12). Cells were harvested fresh on the day of the experiments and maintained in complete-RPMI-1640 medium supplemented with 10% FBS, 2 mM L-glutamine and 20 μg/mL gentamicin at 37° C., 5% (v/v) CO2. Cell proliferation was determined using the Cell Titer-Blue Assay kit (Promega, Madison, Wis., USA). Cells were seeded at 10,000 cells per well in black flat bottom 96-well plates (Nalge Nunc, Penfield, N.Y., USA) and treated with serial doses of hydroxytyrosol (0-3200 μM) and oleuropein (0-12800 μM) for 24, 48 and 120 hours at 37° C., 5% (v/v) CO2. Following incubation with the test samples, Cell-Titer Blue reagent (20 μl per 100 μL) was added to each well and mixed gently for 5 sec prior to 4 hr incubation at 37° C. in a humidified atmosphere of 5% CO2. Fluorescence intensity (λex=550 nm and λem=615 nm) was determined using a Perkin Elmer Victor3 multilabel microplate counter (PerkinElmer, Waltham, Mass., USA). Data were expressed as % relative cell viability compared to untreated cells after correction of subtracting the media control fluorescence reading.
# CEM-CCRF cells = settings: for EC50: Homo sapiens
# Experimental: (§1) Human acute T lymphoblast leukemic CEM-CCRF cells (ATTC NO. CCL-119), obtained from the ATCC were maintained in a Modified Eagle's Medium (α-MEM) supplemented with 2 mmol/L HEPES (pH 7.4; GIBCO-Invitrogen, Carlsbad, Calif., USA), 10% (v/v) FBS, 2 mmol/L L-glutamine (GIBCO-Invitrogen), and 80 units gentamicin (GIBCO-Invitrogen). Similarly, CEM-CCRF—P-glycoprotein (PGP)—over expressing, vinblastine derivative—R100 cells, expressing multi-drug resistance (MDR) were grown in a-MEM supplemented with 2 mmol/L HEPES (pH 7.4), 10% (v/v) FBS, 2 mmol/L L-glutamine, 80 units gentamicin and 100 ng/ml vinblastine. R100 cells were cultured in a-MEM/FBS/gentamicin media without vinblastine for 7 days prior to use in experiments. Cells were cultured in suspension in a humidified atmosphere of 5% (v/v) CO2 at 37° C. and were maintained in exponential growth phase. For maintenance, cells were passaged twice per week and seeded at ratios 1:10. Cell proliferation was determined using the Cell Titer-Blue Assay kit (Promega, Madison, Wis., USA). Cells were seeded at 10,000 cells per well in black flat bottom 96-well plates (Nalge Nunc, Penfield, N.Y., USA) and treated with serial doses of hydroxytyrosol (0-3200 μM) and oleuropein (0-12800 μM) for 24, 48 and 120 hours at 37° C., 5% (v/v) CO2. Following incubation with the test samples, Cell-Titer Blue reagent (20 μl per 100 μL) was added to each well and mixed gently for 5 sec prior to 4 hr incubation at 37° C. in a humidified atmosphere of 5% CO2. Fluorescence intensity (λex=550 nm and λem=615 nm) was determined using a Perkin Elmer Victor3 multilabel microplate counter (PerkinElmer, Waltham, Mass., USA). Data were expressed as % relative cell viability compared to untreated cells after correction of subtracting the media control fluorescence reading.
# R100 cells = settings: for EC50: Homo sapiens
# Experimental: as §1
# A431 cells = settings: for EC50: Homo sapiens, A-431
# Experimental: (§2) Human epidermal squamous carcinoma A431 cells (ATCC No. CRL-1555), human breast adenocarcinoma MCF7 cells (ATCC No. HTB-22) and brain glioblastoma T98G cells (ATCC No. CRL-1690) obtained from the ATCC were grown as monolayers in a Modified Eagle's Medium (a-MEM) supplemented with 2 mmol/L HEPES (pH 7.4; GIBCO-Invitrogen), 10% (v/v) FBS, 2 mmol/L L-glutamine (GIBCO-Invitrogen), and 80 units gentamicin (GIBCO-Invitrogen). Human epithelial lung adenocarcinoma A549 cells (ATCC No. CCL-185), human liver hepatocellular carcinoma and human colorectal carcinoma HT-29 cells (ATCC No. HTB-38) were obtained from the American Type Culture Collection and grown as monolayers in DMEM (Gibco, Invitrogen) supplemented with 10% (v/v) FBS (In Vitro Technologies), antibody/antimycotic containing 100 U/mL Penicillin, 100 μg/mL Streptomycin, 0.25 μg/mL Amphotericin B (Invitrogen, Carlsbad). All adherent cells were maintained in the exponential growth phase in T75 cm^2 vented culture flasks and passaged by 0.05% (v/v) trypsin-EDTA (GIBCO, Invitrogen) before seeding; at 37° C., 5% (v/v) CO2. Cell proliferation was determined using the Cell Titer-Blue Assay kit (Promega, Madison, Wis., USA). Cells were seeded at 10,000 cells per well in black flat bottom 96-well plates (Nalge Nunc, Penfield, N.Y., USA) and treated with serial doses of hydroxytyrosol (0-3200 μM) and oleuropein (0-12800 μM) for 24, 48 and 120 hours at 37° C., 5% (v/v) CO2. Following incubation with the test samples, Cell-Titer Blue reagent (20 μl per 100 μL) was added to each well and mixed gently for 5 sec prior to 4 hr incubation at 37° C. in a humidified atmosphere of 5% CO2. Fluorescence intensity (λex=550 nm and λem=615 nm) was determined using a Perkin Elmer Victor3 multilabel microplate counter (PerkinElmer, Waltham, Mass., USA). Data were expressed as % relative cell viability compared to untreated cells after correction of subtracting the media control fluorescence reading.
# A549 cells = settings: for EC50: Homo sapiens
# Experimental: as §2
# HT-29 cells = settings: for EC50: Homo sapiens
# Experimental: as §2
# MCF7 cells = settings: for EC50: Homo sapiens
# Experimental: as §2
# T98G cells = settings: for EC50: Homo sapiens
# Experimental: as §2
EC50 (CEM-CCRF cells; 24 hr),EC50 (CEM-CCRF cells; 48 hr),EC50 (CEM-CCRF cells; 120 hr),"EC50 (A431 cells; A431, 24 hr)","EC50 (A431 cells; A431, 48 hr)","EC50 (A431 cells; A431, 120 hr)","EC50 (A549 cells; A549, 24 hr)","EC50 (A549 cells; A549, 48 hr)","EC50 (A549 cells; A549, 120 hr)","EC50 (HT-29 cells; HT-29, 24 hr)","EC50 (HT-29 cells; HT-29, 48 hr)",Structure (SMILES),EC50 (PBMC),EC10 (concentration required to reduce the cell viability of the population to 10%) (CEM-CCRF cells; 120 hr),"EC50 (R100 cells; R100, 24 hr)","EC50 (R100 cells; R100, 48 hr)","EC50 (R100 cells; R100, 120 hr)","EC10 (concentration required to reduce the cell viability of the population to 10%) (R100 cells; R100, 120 hr)","EC10 (concentration required to reduce the cell viability of the population to 10%) (A431 cells; A431, 120 hr)","EC10 (concentration required to reduce the cell viability of the population to 10%) (A549 cells; A549, 120 hr)","EC10 (concentration required to reduce the cell viability of the population to 10%) (HT-29 cells; HT-29, 120 hr)",further results
121 µM,100 µM,42 µM,870 µM,920 µM,480 µM,417 µM,220 µM,160 µM,800 µM,230 µM,"OCCc1ccc(O)c(O)c1 [HT, 4-(2-hydroxyethyl)-1,2-benzenediol]",855 µM,80 µM,190 µM,100 µM,40 µM,86 µM,1000 µM,320 µM,380 µM,"cell proliferation of PBMC (PBMC): increases the proliferation; cell proliferation of PBMC (PBMC; listed as hydroxytyrosol): attenuated; EC50 (HT-29 cells; HT-29, 120 hr): 310 µM; EC50 (MCF7 cells; MCF7, 24 hr): 580 µM; EC50 (MCF7 cells; MCF7, 48 hr): 900 µM; EC50 (MCF7 cells; MCF7, 120 hr): 520 µM; EC10 (concentration required to reduce the cell viability of the population to 10%) (MCF7 cells; MCF7, 120 hr): 750 µM; EC10 (concentration required to reduce the cell viability of the population to 10%) (T98G cells; 120 hr): 1120 µM; EC50 (T98G cells; 24 hr): 1340 µM; EC50 (T98G cells; 48 hr): 1750 µM; EC50 (T98G cells; 120 hr): 700 µM"
437 µM,1800 µM,325 µM,1750 µM,4400 µM,2900 µM,1080 µM,1100 µM,1220 µM,1580 µM,2500 µM,"C/C=C1/[C@H](O[C@@H]2O[C@H](CO)[C@@H](O)[C@H](O)[C@H]2O)OC=C(C(=O)OC)[C@H]1CC(=O)OCCc1ccc(O)c(O)c1 [OL, oleuropein]",2710 µM,700 µM,320 µM,1000 µM,250 µM,530 µM,4450 µM,1540 µM,2950 µM,"EC50 (HT-29 cells; HT-29, 120 hr): 1850 µM; EC50 (MCF7 cells; MCF7, 24 hr): 4750 µM; EC50 (MCF7 cells; MCF7, 48 hr): 3000 µM; EC50 (MCF7 cells; MCF7, 120 hr): 4100 µM; EC10 (concentration required to reduce the cell viability of the population to 10%) (MCF7 cells; MCF7, 120 hr): 4700 µM; EC10 (concentration required to reduce the cell viability of the population to 10%) (T98G cells; 120 hr): 6220 µM; EC50 (T98G cells; 24 hr): 2770 µM; EC50 (T98G cells; 48 hr): 6100 µM; EC50 (T98G cells; 120 hr): 5500 µM"
